Test results: patent publication US20250122166A1, “SUBSTITUTED N-((2-(2,6-DIOXOPIPERIDIN-3-YL)-1-OXOISOINDOLIN-4-YL)METHYL)BENZAMIDE ANALOGS AS MODULATORS OF CEREBLON PROTEIN” (ST. JUDE CHILDREN'S RESEARCH HOSPITAL, INC., priority 2021, published 2025)

Assays:
[1] = system: neosubstrate degradation; conditions: relative to lenalidomide; cited from earlier work
[2] = system: MOLM-13 cells; assay: Cell proliferation assay (Cell Titer-Glo, 72 h); format: cell-based; conditions: Homo sapiens, 72 h incubation, * = cytostatic 50%
Method: MOLM-13 cell line was purchased from the Leibniz Institute DSMZ (ACC 554). The cells were cultured according to recommendations in RPMI 1640 cell culture media with 20% FBS (DSMZ). Exponentially growing MOLM-13 cells were plated at 1250 cells per well in Corning 8804BC white 384-well assay plates and incubated overnight at 37° C. in a humidified 5% CO2 incubator. Compounds were transferred to the assay plate from a dose-response plate using a Pintool on a Biomek FXP Laboratory Automation Workstation (Beckman Coulter). Cytotoxicity was determined following 72 hours of incubation using Promega Cell Titer Glo reagent according to the manufacturer's recommendation. Luminescence was measured on an Envision plate reader (Perkin-Elmer).
Compounds were screened in human cancer cell lines and each cell line was cultured in the complete medium recommended by the vendor and seeded in Corning 8804BC white 384-well assay plates at density of 1250 cells per well for MOLM-13 cells. After overnight incubation at 37° C. in a humidified 5% CO2 incubator, cells were treated with compounds in dose-response format using a Pintool on a Biomek FXP Laboratory Automation Workstation (Beckman Coulter). After 72h incubation, cell proliferation was assessed using Cell Titer-Glo (CTG) luminescent cell viability assay (Promega) according to the manufacturer's instruction. Luminescence signal was measured using an Envision plate reader (Perkin-Elmer).

[3] = target: 6XHis-CRBN-DDB1 protein (Homo sapiens (Human), UniProt Q96SW2); assay: CRBN fluorescence polarization assay (competitive, Cy5-O-Len probe); format: binding; conditions: 6XHis-CRBN-DDB1 200 nM, Cy5-O-Len probe 30 nM, 1 hour; mean of three determinations; read-out: CRBN FP (IC50)
Method: In this competitive fluorescent polarization assay Cy5 conjugated lenalidomide analog (Cy5—O-Len)^1 was used as a fluorescent probe. 6XHis-CRBN-DDB1 protein (200 nM) and Cy5—O-Len probe (30 nM) were combined in 20 mM HEPES pH 7, 150 mM NaCl, 0.005% Tween-20 assay buffer. 20 μL of this assay cocktail was dispensed into wells of Corning 3821 black 384-well plates. Compounds were transferred to the assay plate from a dose-response plate using a Pintool on a Biomek FXP Laboratory Automation Workstation (Beckman Coulter). The plates were incubated in the dark for 1 hour at room temperature and then read on an Envision plate reader (PerkinElmer, Massachusetts, USA). IC50 values were determined using a proprietary software RISE (Robust Investigation of Screening Experiments), developed in house on the Pipeline Pilot platform (Biovia, v. 17.2.0). Data represent the mean of three independent determinations.

SMILES: O=C1CC[C@H](N2Cc3c(OCc4ccc(CN5CCOCC5)cc4)cccc3C2=O)C(=O)N1 [CC-220]
- fold more potent in cells than lenalidomide [1]: 10 fold

SMILES: Cc1ccc(F)cc1C(=O)NCc1cccc2c1CN(C1CCC(=O)NC1=O)C2=O (stereo not shown) [Compound 32, N-((2-(2,6-dioxopiperidin-3-yl)-1-oxoisoindolin-4-yl)methyl)-5-fluoro-2-methylbenzamide]
- EC50 [2]: > 10000 nM
- IC50 [3]: 1000 to 10000 nM

SMILES: O=C1CCC(N2Cc3c(CNC(=O)c4c(F)ccc(F)c4Cl)cccc3C2=O)C(=O)N1 (stereo not shown) [Compound 33, 2-chloro-N-((2-(2,6-dioxopiperidin-3-yl)-1-oxoisoindolin-4-yl)methyl)-3,6-difluorobenzamide]
- EC50 [2]: > 10000 nM
- IC50 [3]: < 1000 nM

SMILES: O=C1CCC(N2Cc3c(CNC(=O)c4ccc(OC(F)(F)F)cc4)cccc3C2=O)C(=O)N1 (stereo not shown) [Compound 34, N-((2-(2,6-dioxopiperidin-3-yl)-1-oxoisoindolin-4-yl)methyl)-4-(trifluoromethoxy)benzamide]
- EC50 [2]: < 1000 nM
- IC50 [3]: 1000 to 10000 nM

SMILES: O=C1CCC(N2Cc3c(CNC(=O)c4cc(C(F)(F)F)cc(Cl)c4F)cccc3C2=O)C(=O)N1 (stereo not shown) [Compound 35, 3-chloro-N-((2-(2,6-dioxopiperidin-3-yl)-1-oxoisoindolin-4-yl)methyl)-2-fluoro-5-(trifluoromethyl)benzamide]
- EC50 [2]: > 10000 nM
- IC50 [3]: < 1000 nM

SMILES: O=C1CCC(N2Cc3c(CNC(=O)c4ccc(Cl)cc4F)cccc3C2=O)C(=O)N1 (stereo not shown) [Compound 36, 4-chloro-N-((2-(2,6-dioxopiperidin-3-yl)-1-oxoisoindolin-4-yl)methyl)-2-fluorobenzamide]
- EC50 [2]: < 1000 nM
- IC50 [3]: < 1000 nM

SMILES: O=C1CCC(N2Cc3c(CNC(=O)c4cc(F)ccc4F)cccc3C2=O)C(=O)N1 (stereo not shown) [Compound 37, N-((2-(2,6-dioxopiperidin-3-yl)-1-oxoisoindolin-4-yl)methyl)-2,5-difluorobenzamide]
- EC50 [2]: > 10000 nM
- IC50 [3]: 1000 to 10000 nM

SMILES: O=C1CCC(N2Cc3c(CNC(=O)c4cccc5cc[nH]c45)cccc3C2=O)C(=O)N1 (stereo not shown) [Compound 38, N-((2-(2,6-dioxopiperidin-3-yl)-1-oxoisoindolin-4-yl)methyl)-1H-indole-7-carboxamide]
- EC50 [2]: < 1000 nM
- IC50 [3]: < 1000 nM

SMILES: O=C1CCC(N2Cc3c(CNC(=O)c4cccc5[nH]ccc45)cccc3C2=O)C(=O)N1 (stereo not shown) [Compound 39, N-((2-(2,6-dioxopiperidin-3-yl)-1-oxoisoindolin-4-yl)methyl)-1H-indole-4-carboxamide]
- EC50 [2]: > 10000 nM
- IC50 [3]: < 1000 nM

SMILES: O=C(Cc1ccc(O)cc1)NCc1cccc2c1CN(C1CCC(=O)NC1=O)C2=O (stereo not shown) [Compound 40, N-((2-(2,6-dioxopiperidin-3-yl)-1-oxoisoindolin-4-yl)methyl)-2-(4-hydroxyphenyl)acetamide]
- EC50 [2]: < 1000 nM
- IC50 [3]: < 1000 nM

SMILES: O=C(Cc1ccccc1Br)NCc1cccc2c1CN(C1CCC(=O)NC1=O)C2=O (stereo not shown) [Compound 41, 2-(2-bromophenyl)-N-((2-(2,6-dioxopiperidin-3-yl)-1-oxoisoindolin-4-yl)methyl)acetamide]
- EC50 [2]: > 10000 nM
- IC50 [3]: 1000 to 10000 nM

SMILES: O=C1CCC(N2Cc3c(CNC(=O)c4ccc5nc[nH]c5c4)cccc3C2=O)C(=O)N1 (stereo not shown) [Compound 42, N-((2-(2,6-dioxopiperidin-3-yl)-1-oxoisoindolin-4-yl)methyl)-1H-benzo[d]imidazole-6-carboxamide]
- EC50 [2]: 1000 to 10000 nM
- IC50 [3]: 1000 to 10000 nM

SMILES: O=C1CCC(N2Cc3c(CNC(=O)c4ccccc4Nc4cccc(C(F)(F)F)c4)cccc3C2=O)C(=O)N1 (stereo not shown) [Compound 43, N-((2-(2,6-dioxopiperidin-3-yl)-1-oxoisoindolin-4-yl)methyl)-2-((3-(trifluoromethyl)phenyl)amino)benzamide]
- EC50 [2]: < 1000 nM
- IC50 [3]: 1000 to 10000 nM

SMILES: O=C1CCC(N2Cc3c(CNC(=O)c4ccc(-c5ccc(Cl)cc5)o4)cccc3C2=O)C(=O)N1 (stereo not shown) [Compound 44, 5-(4-chlorophenyl)-N-((2-(2,6-dioxopiperidin-3-yl)-1-oxoisoindolin-4-yl)methyl)furan-2-carboxamide]
- EC50 [2]: < 1000 nM
- IC50 [3]: < 1000 nM

SMILES: O=C1CCC(N2Cc3c(CNC(=O)c4ccccc4Nc4ccccc4)cccc3C2=O)C(=O)N1 (stereo not shown) [Compound 45, N-((2-(2,6-dioxopiperidin-3-yl)-1-oxoisoindolin-4-yl)methyl)-2-(phenylamino)benzamide]
- EC50 [2]: < 1000 nM
- IC50 [3]: 1000 to 10000 nM

SMILES: O=C1CCC(N2Cc3c(CNC(=O)c4ccccc4Cl)cccc3C2=O)C(=O)N1 (stereo not shown) [Compound 46, 2-chloro-N-((2-(2,6-dioxopiperidin-3-yl)-1-oxoisoindolin-4-yl)methyl)benzamide]
- EC50 [2]: < 1000 nM
- IC50 [3]: 1000 to 10000 nM
